In article PMC12029774 (Molecules, 2025):
pIC50: −log10 of the molar value. Ends that are not written are not given here.

What was measured:
[1] = test system: rVSV-GFP-∆G-Spike, SARS-CoV-2 Delta spike; conditions: 1 h
[2] = test system: rVSV-GFP-∆G-Spike, SARS-CoV-2 Omicron B.A1 spike; conditions: 1 h

## EWHGAHIKVTQLF-NH2 [PEP10]
[1]
  pIC50: 4.33
[2]
  pIC50: 3.85
